“Also recorded” adds a separate entry of the source.
Columns and labels:
vanilloid VR1 receptors = vanilloid VR1 receptors (Homo sapiens, UniProt Q8NER1); conditions: cited from earlier work
[1] = test system: rats subjected to brief, continuous footshock; experiment: Nonopioid stress-induced analgesia after brief continuous footshock, tail-flick test, systemic drug; type: in vivo, rat
rats [2] = experiment: Morphine antinociception in rats treated chronically with WIN55,212-2 or vehicle; type: in vivo, rat; conditions: morphine 2.5 mg/kg s.c. on day 15
rats [3] = experiment: Tolerance studies: repeated agonist injections, then footshock stress analgesia; type: in vivo, rat
rats [4] = experiment: Tail-flick latencies in the absence of the stressor / basal nociceptive thresholds; type: in vivo, rat
[5] = test system: dorsolateral periaqueductal gray; experiment: PAG injection studies: microinjection into dorsolateral periaqueductal gray, stress analgesia; type: in vivo, rat; conditions: for basal nociceptive thresholds immediately prior to the stressor: after microinjection into dorsolateral periaqueductal gray
rats [6] = experiment: Δ^9-THC sensitization study (antinociception after stress or no stress); type: in vivo, rat; conditions: 10 mg/kg i.p. 24 h following stress or no stress; tail-flick 28-32 min after drug
[7] = 5 mg/kg i.p. 20 min prior to footshock

vanilloid VR1 receptors, sequence (Q8NER1 whole entry): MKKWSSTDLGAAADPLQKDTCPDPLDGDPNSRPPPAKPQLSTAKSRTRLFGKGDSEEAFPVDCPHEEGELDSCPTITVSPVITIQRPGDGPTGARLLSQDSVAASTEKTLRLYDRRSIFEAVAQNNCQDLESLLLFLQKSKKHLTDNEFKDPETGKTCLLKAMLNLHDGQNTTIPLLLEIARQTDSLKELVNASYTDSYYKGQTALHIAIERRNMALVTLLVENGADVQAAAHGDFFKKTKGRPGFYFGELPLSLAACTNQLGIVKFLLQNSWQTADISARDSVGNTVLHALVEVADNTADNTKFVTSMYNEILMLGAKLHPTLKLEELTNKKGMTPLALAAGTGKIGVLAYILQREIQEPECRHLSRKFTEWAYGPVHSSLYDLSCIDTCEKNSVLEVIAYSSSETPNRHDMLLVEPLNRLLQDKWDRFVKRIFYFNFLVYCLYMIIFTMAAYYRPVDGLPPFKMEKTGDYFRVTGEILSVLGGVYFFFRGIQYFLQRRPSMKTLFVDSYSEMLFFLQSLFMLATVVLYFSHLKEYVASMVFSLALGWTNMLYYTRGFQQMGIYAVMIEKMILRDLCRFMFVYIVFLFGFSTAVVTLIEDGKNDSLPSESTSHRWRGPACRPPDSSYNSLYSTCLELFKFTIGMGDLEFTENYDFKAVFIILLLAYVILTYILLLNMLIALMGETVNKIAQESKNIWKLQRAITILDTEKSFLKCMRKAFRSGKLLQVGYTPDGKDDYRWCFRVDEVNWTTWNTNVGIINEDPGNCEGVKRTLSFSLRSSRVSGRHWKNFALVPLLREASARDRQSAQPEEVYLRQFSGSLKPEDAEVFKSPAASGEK

CCCCC/C=C\C/C=C\C/C=C\C/C=C\CCCC(=O)NCCO [anandamide, arachidonylethanolamide]
binding to VR1 (vanilloid VR1 receptors): binds to VR1 with low affinity

Oc1cc2c(cc1O)CN(C(=S)NCCc1ccc(Cl)cc1)CCC2 [capsazepine]
effect on stress analgesia (tail-flick latencies after footshock) ([1]; 10 mg/kg i.p. 20 min prior to footshock (capsazepine)): failed to alter SIA; also recorded: did not alter stress analgesia

CN1CC[C@]23c4c5ccc(O)c4O[C@H]2[C@@H](O)C=C[C@H]3[C@H]1C5 [morphine]
morphine analgesia in cannabinoid-tolerant group relative to controls (rats [2]): modest enhancement in morphine analgesia
post-morphine tail-flick latencies Mean±SEM (rats [2]; rats treated chronically with WIN55,212-2): 6.2 ± 0.25 s
post-morphine tail-flick latencies Mean±SEM (rats [2]; rats treated chronically with vehicle): 5.3 ± 0.21 s
post-morphine tail-flick latencies (tolerance to morphine antinociception) (rats [3]; 10 mg/kg s.c. x 7 days, days 1 and 7): higher on day 1 compared to day 7
stress analgesia in morphine-tolerant rats (rats [3]; chronic morphine 10 mg/kg s.c. x 7 days vs vehicle, footshock 24 h after last injection): SIA did not differ; also recorded: No differences in stress analgesia

Cc1c(C(=O)c2cccc3ccccc23)c2cccc3c2n1[C@H](CN1CCOCC1)CO3 [WIN55,212-2]
stress analgesia after acute cannabinoid (rats [3]; 10 mg/kg i.p. on day 14, 24 h prior to footshock, vs vehicle): stress analgesia was increased
post-injection tail-flick latencies (tolerance to cannabinoid antinociception) (rats [3]; 10 mg/kg i.p. x 14 days, days 2, 7 and 14): higher on day 2 compared to day 7 or 14; also recorded: induced tolerance to cannabinoid antinociception
stress analgesia in cannabinoid-tolerant rats (rats [3]; chronic 10 mg/kg i.p. x 14 days, footshock 24 h after last injection, vs vehicle or acute group): SIA was attenuated; also recorded: Stress analgesia was attenuated

O=C1CC[C@@]2(O)[C@H]3Cc4ccc(O)c5c4[C@@]2(CCN3CC2CC2)[C@H]1O5 [naltrexone]
effect on stress analgesia (tail-flick latencies after footshock) ([1]; 14 mg/kg i.p. 20 min prior to footshock): not naltrexone or SR144528 blocks SIA; also recorded: neither the opioid antagonist naltrexone (14 mg/kg i.p.) nor the CB2 antagonist SR144528 altered stress analgesia

Cc1c(C(=O)NN2CCCCC2)nn(-c2ccc(Cl)cc2Cl)c1-c1ccc(Cl)cc1 [SR141716A]
tail-flick latencies in the absence of the stressor (rats [4]; no footshock, same times): failed to alter tail-flick latencies in the absence of footshock
inhibition of vanilloid VR1 receptors (vanilloid VR1 receptors): inhibits vanilloid VR1 receptors at high concentrations
effect on AA-5-HT potentiation of stress analgesia ([1]; 1 mg/kg i.p. ten min prior to AA-5-HT 10 mg/kg i.p.): blocked
effect on stress analgesia (tail-flick latencies after footshock) [1, 7]: blocks SIA; also recorded: markedly attenuated
effect on stress analgesia after site-specific administration ([5]; 1 μg into dorsolateral periaqueductal gray, 5 min before footshock): suppressed; also recorded: blocked nonopioid stress analgesia
basal nociceptive thresholds immediately prior to the stressor [5]: absence of changes in basal nociceptive thresholds

SR144528
effect on stress analgesia (tail-flick latencies after footshock) [1, 7]: not naltrexone or SR144528 blocks SIA; also recorded: neither the opioid antagonist naltrexone (14 mg/kg i.p.) nor the CB2 antagonist SR144528 altered stress analgesia

CCCCC/C=C\C/C=C\C/C=C\C/C=C\CCCC(=O)NCCc1c[nH]c2ccc(O)cc12 [AA-5-HT, arachidonoylserotonin]
effect on stress analgesia (tail-flick latencies after footshock) ([1]; 10 mg/kg i.p., footshock 65 min following administration (FAAH inhibition study)): Potentiation of SIA; also recorded: increased the magnitude and duration of cannabinoid stress analgesia
effect on stress analgesia after site-specific administration ([5]; 10 μg into dorsolateral periaqueductal gray, 35 min before footshock): enhanced SIA; also recorded: enhanced nonopioid stress analgesia
basal nociceptive thresholds immediately prior to the stressor [5]: absence of changes in basal nociceptive thresholds

CCCCCc1cc(O)c2c(c1)OC(C)(C)[C@@H]1CCC(C)=C[C@@H]21 [Δ^9-THC, Δ^9-tetrahydrocannabinol]
effect on stress analgesia (tail-flick latencies after footshock) ([1]; 10 mg/kg i.p. 20 min prior to footshock (Δ^9-THC), vs vehicle): potentiated SIA relative to vehicle; also recorded: enhanced the magnitude and the duration of nonopioid stress analgesia
Δ^9-THC-induced antinociception in shocked vs non-shocked rats (rats [6]): greater in rats subjected to footshock; also recorded: greater in rats subjected previously to the stressor

Cc1c(C(=O)NN2CCCCC2)nn(-c2ccc(Cl)cc2Cl)c1-c1ccc(I)cc1 [AM251]
basal nociceptive thresholds (rats [4]; 5 mg/kg i.p., before the stressor): absence of changes in basal nociceptive thresholds
effect on stress analgesia (tail-flick latencies after footshock) [1, 7]: suppressed SIA; also recorded: blocked this stress analgesia
